Key:
[1] = system: ABUTH; test: Pre-emergence herbicidal action against ABUTH; assay type: in vivo, Abutilon theophrasti; conditions: for Pre-emergence action against ABUTH (herbicidal activity): 80 g/ha, scored visually after 3 weeks vs untreated controls (100% = plants have died, 0% = like control plants); for Pre-emergence action against ABUTH (herbicidal activity in percent): dosage 20 g/ha, scored visually after 3 weeks vs untreated controls, 100% = plants have died, 0% = like control plants
Method in brief: (§1)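 Visual rating at 3 weeks vs untreated pots; 0–100% scale, 100% = plants died. Treatment: aqueous WP/EC spray onto covering soil, 600–800 l/ha, 0.2% wetter, seeds in sandy loam.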

[2] = system: ALOMY; test: Pre-emergence herbicidal action against ALOMY; assay type: in vivo, Alopecurus myosuroides; conditions: 80 g/ha, pre-emergence, scored visually after 3 weeks vs untreated controls (100% = plants have died, 0% = like control plants)
Method in brief: as §1

[3] = system: AMARE; test: Pre-emergence herbicidal action against AMARE; assay type: in vivo, Amaranthus retroflexus
Method in brief: as §1

[4] = system: AVEFA; test: Pre-emergence herbicidal action against AVEFA; assay type: in vivo, Avena fatua; conditions: 80 g/ha, pre-emergence
Method in brief: as §1

[5] = system: ECHCG; test: Pre-emergence herbicidal action against ECHCG; assay type: in vivo, Echinochloa crus-galli; conditions: 80 g/ha
Method in brief: as §1

[6] = system: MATIN; test: Pre-emergence herbicidal action against MATIN; assay type: in vivo, Matricaria inodora
Method in brief: as §1

[7] = system: POLCO; test: Pre-emergence herbicidal action against POLCO; assay type: in vivo, Polygonum convolvulus; conditions: dosage 80 g/ha
Method in brief: as §1

[8] = system: SETVI; test: Pre-emergence herbicidal action against SETVI; assay type: in vivo, Setaria viridis; conditions: dosage 80 g/ha
Method in brief: as §1

[9] = system: STEME; test: Pre-emergence herbicidal action against STEME; assay type: in vivo, Stellaria media
Method in brief: as §1

[10] = system: VIOTR; test: Pre-emergence herbicidal action against VIOTR; assay type: in vivo, Viola tricolor
Method in brief: as §1

[11] = system: DIGSA; test: Pre-emergence herbicidal action against DIGSA; assay type: in vivo, Digitaria sanguinalis
Method in brief: as §1

[12] = system: ABUTH; test: Post-emergence herbicidal action against ABUTH; assay type: in vivo, Abutilon theophrasti; conditions: visual assessment about 3 weeks after treatment vs untreated controls
Method in brief: (§2)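 Weeds in sandy loam soil received a post-emergence spray at the one-leaf stage. Compounds were applied as WP or EC in water, 600 to 800 l/ha, with 0.2% wetting agent. Activity in % was judged visually after roughly 3 weeks against untreated plants.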

[13] = system: AMARE; test: Post-emergence herbicidal action against AMARE; assay type: in vivo, Amaranthus retroflexus; conditions: 20 g/ha, visual assessment about 3 weeks after treatment, 100% = plants have died, 0% = like control plants
Method in brief: as §2

[14] = system: AVEFA; test: Post-emergence herbicidal action against AVEFA; assay type: in vivo, Avena fatua; conditions: 20 g/ha, visual assessment about 3 weeks after treatment, 100% = plants have died, 0% = like control plants
Method in brief: as §2

[15] = system: MATIN; test: Post-emergence herbicidal action against MATIN; assay type: in vivo, Matricaria inodora
Method in brief: as §2

[16] = system: PHBPU; test: Post-emergence herbicidal action against PHBPU; assay type: in vivo, Pharbitis purpurea
Method in brief: as §2

[17] = system: STEME; test: Post-emergence herbicidal action against STEME; assay type: in vivo, Stellaria media
Method: Seeds of monocotyledonous and dicotyledonous weed and crop plants are laid out in sandy loam soil in wood-fiber pots, covered with soil and cultivated in a greenhouse under good growth conditions. 2 to 3 weeks after sowing, the test plants are treated at the one-leaf stage. The compounds of the invention, formulated in the form of wettable powders (WP) or as emulsion concentrates (EC), are then sprayed onto the green parts of the plants in the form of an aqueous suspension or emulsion at a water application rate equivalent to 600 to 800 l/ha, with addition of 0.2% wetting agent. After the test plants have been left to stand in the greenhouse under optimal growth conditions for about 3 weeks, the action of the preparations is assessed visually in comparison to untreated controls (herbicidal action in percent (%): 100% activity=the plants have died, 0% activity=like control plants). […] The tables below illustrate, in an illustrative manner, the post-emergence herbicidal action of the compounds of the invention, the herbicidal activity being stated in percent.

[18] = system: VIOTR; test: Post-emergence herbicidal action against VIOTR; assay type: in vivo, Viola tricolor
Method in brief: as §2

[19] = system: PHBPU; test: Pre-emergence herbicidal action against PHBPU; assay type: in vivo, Pharbitis purpurea; conditions: dosage 80 g/ha
Method in brief: as §1

[20] = system: VERPE; test: Pre-emergence herbicidal action against VERPE; assay type: in vivo, Veronica persica; conditions: dosage 80 g/ha
Method in brief: as §1

[21] = system: ECHCG; test: Post-emergence herbicidal action against ECHCG; assay type: in vivo, Echinochloa crus-galli
Method in brief: as §2

[22] = system: SETVI; test: Post-emergence herbicidal action against SETVI; assay type: in vivo, Setaria viridis; conditions: dosage 20 g/ha
Method in brief: as §2

[23] = system: VERPE; test: Post-emergence herbicidal action against VERPE; assay type: in vivo, Veronica persica; conditions: 20 g/ha
Method in brief: as §2

[24] = system: DIGSA; test: Post-emergence herbicidal action against DIGSA; assay type: in vivo, Digitaria sanguinalis
Method in brief: as §2

[25] = 20 g/ha, scored visually after 3 weeks vs untreated controls, 100% = plants have died, 0% = like control plants
[26] = 80 g/ha, scored visually after 3 weeks vs untreated controls (100% = plants have died, 0% = like control plants)

Structure (SMILES) | Pre-emergence action against ABUTH (herbicidal activity) [1] [%] | Pre-emergence action against ABUTH (herbicidal activity in percent) [1] [%] | Pre-emergence action against AMARE in % [3, 25] [%] | Pre-emergence action against AMARE in % [3, 26] [%] | Pre-emergence action against AVEFA in % [4] [%] | Pre-emergence action against ECHCG in % [5] [%] | Pre-emergence action against MATIN in % ([6]; dosage 20 g/ha) [%] | Pre-emergence action against MATIN in % ([6]; dosage 80 g/ha) [%] | Pre-emergence action against SETVI in % [8] [%] | Pre-emergence action against STEME in % ([9]; dosage 20 g/ha) [%] | Pre-emergence action against STEME in % ([9]; dosage 80 g/ha) [%] | Pre-emergence action against VIOTR in % ([10]; dosage 80 g/ha) [%] | Pre-emergence action against DIGSA in % ([11]; dosage 80 g/ha) [%] | Post-emergence action against ABUTH in % ([12]; dosage 5 g/ha) [%] | Post-emergence action against ABUTH in % ([12]; dosage 20 g/ha) [%] | Post-emergence action at 20 g/ha against AVEFA in % [14] [%] | Post-emergence action against MATIN in % ([15]; dosage 5 g/ha) [%] | Post-emergence action against MATIN in % ([15]; dosage 20 g/ha) [%] | Post-emergence action against PHBPU in % ([16]; dosage 20 g/ha) [%] | Post-emergence action against STEME in % ([17]; 20 g/ha) [%] | further results
CCCn1nnnc1NC(=O)c1ccc(C(F)(F)F)c(C(=O)NCC)c1Br [Example 3-208] | 100 | 100 | 100 | 100 | 100 | 80 | 100 | 100 | 100 | 90 | 100 | 100 | 80 | 90 | 90 | 80 | 90 | 90 | 90 | 90 | Pre-emergence action against ALOMY (herbicidal activity) [2]: 90%; Pre-emergence action against POLCO in % [7]: 80%; Post-emergence action at 20 g/ha against AMARE in % [13]: 90%; Post-emergence action against PHBPU in % ([16]; dosage 5 g/ha): 80%; Post-emergence action against STEME in % ([17]; dosage 5 g/ha): 80%; Post-emergence action against VIOTR in % ([18]; 5 g/ha): 100%; Post-emergence action against VIOTR in % ([18]; 20 g/ha): 100%
CCCn1nnnc1NC(=O)c1ccc(C(F)(F)F)c(C(=O)NC2CC2)c1CC [Example 3-273] | 100 | 90 | 100 | 100 | 90 | 80 | 90 | 100 | 100 | 90 | 100 | 100 | 100 | 80 | 90 | 80 | 80 | 90 | 80 | 90 | Pre-emergence action against PHBPU in % [19]: 90%; Pre-emergence action against VERPE in % [20]: 100%; Pre-emergence action against VIOTR in % ([10]; dosage 20 g/ha): 100%; Pre-emergence action against DIGSA in % ([11]; dosage 20 g/ha): 90%; Post-emergence action against ECHCG in % ([21]; dosage 5 g/ha): 80%; Post-emergence action against ECHCG in % ([21]; dosage 20 g/ha): 80%; Post-emergence action against SETVI in % [22]: 80%; Post-emergence action against STEME in % ([17]; dosage 5 g/ha): 80%; Post-emergence action against VERPE in % [23]: 80%; Post-emergence action against DIGSA in % ([24]; 5 g/ha): 80%; Post-emergence action against DIGSA ([24]; 20 g/ha): 90%

— patent publication US12655116B2, “Substituted isophthalic acid diamides” (Bayer Aktiengesellschaft, priority 2020, dated 2026)
